In ChEMBL document CHEMBL3244144, “Piperidylalkylindoles. 1. Hypotensive activity of 3-[2-(phenoxypiperidyl)ethyl]indoles” (J Med Chem, 1978) one finds Activity data, which are given here for 28 compounds.

The source made the active and inactive calls. The rule behind the calls is not given here.

The test system of series [1] is Rattus norvegicus. In words: Antihypertensive activity in spontaneous hypertensive rat assessed as change in systolic blood pressure at 50 mg/kg, po dosed at 0 hrs on day 1, 2 and 3 measured on day 3 by indirect tail-cuff method. In kind it is functional, Artery.
Series [2] deals with Rattus norvegicus. In words: Antihypertensive activity in spontaneous hypertensive rat assessed as change in systolic blood pressure at 100 mg/kg, po dosed at 0 hrs on day 1, 2 and 3 measured on day 3 by indirect tail-cuff method. In kind it is functional.
In series [3] the test system is Rattus norvegicus. In words: Antihypertensive activity in spontaneous hypertensive rat assessed as change in systolic blood pressure at 100 mg/kg, po dosed at 0 hrs on day 1, 2 and 3 measured on day 1 by indirect tail-cuff method. In kind it is functional.
In series [4] the test system is Rattus norvegicus. In words: Toxicity in spontaneous hypertensive rat model at 100 mg/kg, po dosed at 0 hrs on day 1, 2 and 3 measured on day 3. The format is organism-based. Also on record: dose 100 mg/kg, route oral. The note with it: in vivo.

On to `Cl.O=C(NC1CCN(CCc2c[nH]c3ccccc23)CC1)c1ccccc1` [INDORAMIN HYDROCHLORIDE], for which, in the series with Rattus norvegicus [1], the Activity is given as -79 mmHg. With `O=C(C(=O)N1CCC(Oc2ccc(Cl)cc2)CC1)c1c[nH]c2ccccc12`, the outcome in the series with Rattus norvegicus [2] (Artery) and with Rattus norvegicus [3] (Artery) was inactive. On to `Cc1ccc(OC2CCCN(CCc3c[nH]c4ccccc34)C2)cc1` (stereo not given), for which the Activity is -12 mmHg in the series with Rattus norvegicus [2] and -63 mmHg with Rattus norvegicus [3].

Turning to `Cc1cccc(OC2CCN(C(=O)C(=O)c3c[nH]c4ccccc34)CC2)c1`, the outcome with Rattus norvegicus [2] (Artery) and in the series on Rattus norvegicus [3] (Artery) was inactive.

Turning to `COc1cc2[nH]c(C)c(C(=O)C(=O)N3CCC(Oc4ccc(C(F)(F)F)cc4)CC3)c2cc1OC`, the outcome in the series on Rattus norvegicus [2] (Artery) and in the series on Rattus norvegicus [3] (Artery) was inactive. On to `O=C(C(=O)N1CCC(Oc2ccc(C(F)(F)F)cc2)CC1)c1c[nH]c2ccccc12`, for which the outcome in the series with Rattus norvegicus [2] (Artery) and in the series on Rattus norvegicus [3] (Artery) was inactive. Regarding `Cc1ccc(OC2CCN(C(=O)C(=O)c3c[nH]c4ccccc34)CC2)cc1`, the result in the series with Rattus norvegicus [2] (Artery) and in the series with Rattus norvegicus [3] (Artery) was inactive.

For the compound `Cc1[nH]c2ccccc2c1CCN1CCC(Oc2ccc(F)cc2)CC1`, the Activity result with Rattus norvegicus [4] was “Toxic”; in the series on Rattus norvegicus [3] it was -18 mmHg. For the compound `Brc1ccc(OC2CCN(CCc3c[nH]c4ccccc34)CC2)cc1`, the Activity in the series on Rattus norvegicus [2] is listed as -59 mmHg; with Rattus norvegicus [3], -49 mmHg. With `Cc1ccc(OC2CCN(CCc3c[nH]c4ccccc34)CC2)cc1`, the Activity in the series with Rattus norvegicus [2] is -57 mmHg; with Rattus norvegicus [3] it was -48 mmHg. `O=C(C(=O)N1CCC(Oc2cccc(Cl)c2)CC1)c1c[nH]c2ccccc12`: the outcome in the series on Rattus norvegicus [2] (Artery) and in the series with Rattus norvegicus [3] (Artery) was inactive. With `Cc1ccccc1OC1CCN(C(=O)C(=O)c2c[nH]c3ccccc23)CC1`, the outcome in the series on Rattus norvegicus [2] (Artery) and in the series with Rattus norvegicus [3] (Artery) was inactive.

Regarding `Clc1cccc(OC2CCN(CCc3c[nH]c4ccccc34)CC2)c1`, the Activity in the series with Rattus norvegicus [2] is reported as -8 mmHg; in the series with Rattus norvegicus [3], -11.2 mmHg. Turning to `Cc1ccc(OC2CCCN(C(=O)C(=O)c3c[nH]c4ccccc34)C2)cc1` (stereo not given), the result in the series on Rattus norvegicus [2] (Artery) and with Rattus norvegicus [3] (Artery) was inactive. Consider `Cc1ccccc1OC1CCN(CCc2c[nH]c3ccccc23)CC1`, for which the values for the Activity in the series on Rattus norvegicus [2] and in the series on Rattus norvegicus [3] were -8 mmHg and -7 mmHg, respectively.

Take `COc1ccc2[nH]cc(C(=O)C(=O)N3CCC(Oc4ccc(F)cc4)CC3)c2c1`: the result in the series with Rattus norvegicus [2] (Artery) and with Rattus norvegicus [3] (Artery) was inactive.

Regarding `FC(F)(F)c1ccc(OC2CCN(CCc3c[nH]c4ccccc34)CC2)cc1`, the values for the Activity result in the series with Rattus norvegicus [4] and with Rattus norvegicus [3] were “Toxic” and -24 mmHg, respectively. As to `Cc1[nH]c2ccccc2c1C(=O)C(=O)N1CCC(Oc2ccc(F)cc2)CC1`, the result in the series on Rattus norvegicus [2] (Artery) and in the series on Rattus norvegicus [3] (Artery) was inactive. As to `c1ccc(OC2CCN(CCc3c[nH]c4ccccc34)CC2)cc1`, the Activity in the series on Rattus norvegicus [2] was -31 mmHg; in the series on Rattus norvegicus [3], -10 mmHg. Regarding `O=C(C(=O)N1CCC(Oc2ccc(F)cc2)CC1)c1c[nH]c2ccc(OCc3ccccc3)cc12`, the result in the series on Rattus norvegicus [2] (Artery) and with Rattus norvegicus [3] (Artery) was inactive. For the compound `Fc1ccc(OC2CCN(CCc3c[nH]c4ccc(OCc5ccccc5)cc34)CC2)cc1`, the results for the Activity in the series with Rattus norvegicus [2] and in the series with Rattus norvegicus [3] were -16 mmHg and -2 mmHg, respectively.

For the compound `Fc1ccc(OC2CCN(CCc3c[nH]c4ccccc34)CC2)cc1`, the Activity was -55 mmHg in the series with Rattus norvegicus [2] and -56 mmHg in the series on Rattus norvegicus [3]. In the case of `O=C(C(=O)N1CCC(Oc2ccccc2)CC1)c1c[nH]c2ccccc12`, the outcome in the series with Rattus norvegicus [2] (Artery) and in the series on Rattus norvegicus [3] (Artery) was inactive. For `COc1ccc2[nH]cc(CCN3CCC(Oc4ccc(F)cc4)CC3)c2c1`, the results for the Activity in the series on Rattus norvegicus [2] and in the series on Rattus norvegicus [3] were -6 mmHg and -2 mmHg, respectively. For the compound `Cc1cccc(OC2CCN(CCc3c[nH]c4ccccc34)CC2)c1`, the Activity is reported as -14 mmHg in the series with Rattus norvegicus [2] and -3 mmHg with Rattus norvegicus [3]. Turning to `O=C(C(=O)N1CCC(Oc2ccc(F)cc2)CC1)c1c[nH]c2ccccc12`, the outcome in the series with Rattus norvegicus [2] (Artery) and with Rattus norvegicus [3] (Artery) was inactive. As to `COc1cc2[nH]c(C)c(CCN3CCC(Oc4ccc(C(F)(F)F)cc4)CC3)c2cc1OC`, the Activity in the series with Rattus norvegicus [2] was -58 mmHg; in the series on Rattus norvegicus [3], -24 mmHg. Take `Clc1ccc(OC2CCN(CCc3c[nH]c4ccccc34)CC2)cc1`: the Activity was -54 mmHg in the series with Rattus norvegicus [2] and -47 mmHg in the series on Rattus norvegicus [3].
